Test systems include NCI-H226 lung; UACC-62 melanoma; OVCAR-5 ovarian; SN12C renal; SR leukemia; K-562 leukemia; NCI/ADR-RES ovarian; ACHN renal; COLO 205 colon; RXF 393 renal; UO-31 renal; U251 CNS; TK-10 renal; SNB-19 CNS; DU-145 prostate; MDA-MB-231 breast; HOP-92 NSCLC; NCI-H460 lung; SNB-75 CNS.
What all share (assay): NCI tumour cell line growth inhibition, 48 h

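A five-concentration, 48-hour dose response in 96-well plates underlies each endpoint, interpolated linearly between surrounding concentrations. TGI marks complete inhibition of growth.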

As to `NNC(=O)c1cc([N+](=O)[O-])ccc1NC(=O)C12CC3CC(CC(C3)C1)C2`, the TGI was 40.3 µM in the assay with NCI-H226 lung; 28 µM with UACC-62 melanoma; over 100 µM with OVCAR-5 ovarian; over 100 µM in the assay with SN12C renal; 55.6 µM in the assay on SR leukemia; over 100 µM in the assay on K-562 leukemia. Further, the TGI came to 49.2 µM with NCI/ADR-RES ovarian; 36.1 µM with ACHN renal; 64.2 µM in the assay on COLO 205 colon; 42.2 µM in the assay with RXF 393 renal; 31.5 µM in the assay on UO-31 renal; 37.7 µM in the assay on U251 CNS. The TGI is 59.5 µM with TK-10 renal; 21.4 µM in the assay with SNB-19 CNS; over 100 µM with DU-145 prostate; 56.5 µM in the assay with MDA-MB-231 breast; 51.7 µM in the assay with HOP-92 NSCLC; 62.8 µM in the assay on NCI-H460 lung.

As to `O=C1C=C(NCC(c2ccccc2)c2ccccc2)C(=O)c2ncccc21`, the TGI stood at 9.71 µM in the assay on NCI-H226 lung; 2.9 µM in the assay on UACC-62 melanoma; 10.1 µM with OVCAR-5 ovarian; 5.16 µM in the assay with SN12C renal; 4.87 µM in the assay on SR leukemia; 4.1 µM with K-562 leukemia. Also, the TGI turned out to be 8.05 µM with NCI/ADR-RES ovarian; 13.4 µM in the assay with ACHN renal; 24.4 µM with COLO 205 colon; 12.2 µM in the assay with UO-31 renal; 11.4 µM in the assay on U251 CNS; 51.5 µM in the assay on TK-10 renal. The TGI in the assay with SNB-75 CNS is 2.77 µM; in the assay on SNB-19 CNS, 9.62 µM; with DU-145 prostate, 4.74 µM; in the assay on MDA-MB-231 breast, 11.5 µM; in the assay with HOP-92 NSCLC it was 12.9 µM; with NCI-H460 lung, 1.92 µM.

In the case of `CCOC(=O)N/N=C(\CC)NO`, the TGI in the assay on NCI-H226 lung, in the assay with UACC-62 melanoma, with OVCAR-5 ovarian, in the assay on SN12C renal, in the assay with SR leukemia and in the assay with K-562 leukemia was over 100 µM throughout. The TGI in the assay with NCI/ADR-RES ovarian, in the assay on ACHN renal, in the assay on COLO 205 colon, in the assay on RXF 393 renal, in the assay with UO-31 renal and in the assay on U251 CNS was over 100 µM each time. Also, the TGI in the assay with TK-10 renal, in the assay with SNB-19 CNS, in the assay with DU-145 prostate, in the assay with MDA-MB-231 breast, in the assay with HOP-92 NSCLC and with NCI-H460 lung was over 100 µM each time.

As to `COC(=O)c1sc2c(c1C(=O)OC)C(=NC(C)(C)C)SC2=NC(C)(C)C`, the TGI with NCI-H226 lung was 34.9 µM; in the assay on UACC-62 melanoma, 33.2 µM; in the assay on OVCAR-5 ovarian it was 37.2 µM; in the assay with SN12C renal it was 34.5 µM; in the assay with SR leukemia, 33.8 µM; in the assay on K-562 leukemia, 43.3 µM. Moreover, the TGI was 42.7 µM in the assay on NCI/ADR-RES ovarian; 33.1 µM in the assay on ACHN renal; 34 µM in the assay on COLO 205 colon; 19.3 µM in the assay on RXF 393 renal; 2.43 µM with UO-31 renal; 32.3 µM in the assay on U251 CNS. Also, the TGI with TK-10 renal was found to be 33.2 µM; in the assay on SNB-19 CNS, 35.8 µM; in the assay with DU-145 prostate, 30.5 µM; in the assay on MDA-MB-231 breast it was 37.3 µM; with HOP-92 NSCLC, 35.4 µM; with NCI-H460 lung, 34.9 µM.

Consider `O=C(Cn1c(C(=O)/C=C/c2ccc(Cl)cc2)nc2ccccc21)c1ccc(Cl)cc1`, for which the TGI in the assay with NCI-H226 lung was 64.4 µM; in the assay on UACC-62 melanoma, 33.7 µM; in the assay on OVCAR-5 ovarian it was 64.1 µM; in the assay on SN12C renal it was 37.3 µM; with SR leukemia, 22.9 µM; with K-562 leukemia, over 100 µM. Moreover, the TGI worked out at 63 µM in the assay with NCI/ADR-RES ovarian; 72.5 µM with ACHN renal; 36.1 µM in the assay on COLO 205 colon; 32.6 µM with RXF 393 renal; 43 µM with UO-31 renal; 33.4 µM with U251 CNS. Also, the TGI in the assay with TK-10 renal was 98.5 µM; with SNB-19 CNS it was 69.5 µM; in the assay with DU-145 prostate it was 56.1 µM; in the assay on MDA-MB-231 breast it was 52 µM; in the assay with HOP-92 NSCLC, over 100 µM; in the assay with NCI-H460 lung, 28.9 µM.

As to `CC(=O)NC1CC(C(C)(C)NC(C)=O)CC=C1C` (configuration not stated), the TGI in the assay with UACC-62 melanoma, with OVCAR-5 ovarian, with SN12C renal, in the assay on SR leukemia, in the assay on K-562 leukemia and in the assay with NCI/ADR-RES ovarian was over 100 µM in each case. The TGI in the assay with COLO 205 colon, in the assay on UO-31 renal, in the assay on U251 CNS, in the assay on TK-10 renal, in the assay on SNB-75 CNS and with SNB-19 CNS was over 100 µM throughout. Also, the TGI in the assay on DU-145 prostate, in the assay on MDA-MB-231 breast, in the assay on HOP-92 NSCLC and in the assay with NCI-H460 lung was over 100 µM throughout.

On to `COc1ccc(C2Oc3c(cccc3-c3c(-c4ccc(O)cc4)oc4cc(O)cc(O)c4c3=O)C(=O)C2O)cc1O` (configuration not stated), for which the TGI in the assay with NCI-H226 lung, with UACC-62 melanoma, with OVCAR-5 ovarian, with SN12C renal, with SR leukemia and in the assay with K-562 leukemia was over 100 µM in each case. The TGI in the assay with NCI/ADR-RES ovarian, in the assay with ACHN renal, with COLO 205 colon, in the assay on UO-31 renal, with U251 CNS and with TK-10 renal was over 100 µM each time. The TGI in the assay with SNB-75 CNS, in the assay on SNB-19 CNS, in the assay on DU-145 prostate, in the assay with MDA-MB-231 breast, with HOP-92 NSCLC and in the assay with NCI-H460 lung was over 100 µM each time.

For `C[C@H](c1ccccc1)n1c(N)c(-c2nc3ccccc3s2)c2ccc([N+](=O)[O-])cc2c1=O`, the TGI in the assay with NCI-H226 lung is over 63.1 µM; in the assay with UACC-62 melanoma it was over 100 µM; with OVCAR-5 ovarian, over 100 µM; in the assay with SN12C renal, over 100 µM; in the assay with SR leukemia, 13 µM; in the assay on K-562 leukemia, 4.25 µM. In addition, the TGI was 22 µM in the assay on NCI/ADR-RES ovarian; 65.7 µM in the assay with ACHN renal; 36.4 µM in the assay on COLO 205 colon; 18.4 µM in the assay with UO-31 renal; 53.3 µM with U251 CNS; over 100 µM with TK-10 renal. The TGI with SNB-75 CNS is over 91.7 µM; in the assay on SNB-19 CNS, over 52.1 µM; with DU-145 prostate it was over 38.8 µM; in the assay on MDA-MB-231 breast, 27.7 µM; in the assay with HOP-92 NSCLC it was 5.81 µM; with NCI-H460 lung, over 61.5 µM.

Take `C[C@H](CCC(=O)NCCS(=O)(=O)O)[C@H]1CC[C@H]2[C@@H]3[C@H](O)C[C@@H]4C[C@H](O)CC[C@]4(C)[C@H]3CC[C@]12C`: the TGI in the assay with NCI-H226 lung, in the assay on UACC-62 melanoma, with OVCAR-5 ovarian, in the assay on SN12C renal, with SR leukemia and in the assay with K-562 leukemia was over 100 µM in each case. Besides, the TGI in the assay on NCI/ADR-RES ovarian, with ACHN renal, with COLO 205 colon, with RXF 393 renal, in the assay with UO-31 renal and in the assay with U251 CNS was over 100 µM each time. Besides, the TGI in the assay with TK-10 renal, with SNB-19 CNS, in the assay on DU-145 prostate, with MDA-MB-231 breast, in the assay on HOP-92 NSCLC and in the assay with NCI-H460 lung was over 100 µM each time.

In the case of `Cc1ccc2c(n1)NC(=O)C(Cc1ccccc1)(N=[N+]=[N-])C2=O` (configuration not stated), the TGI with NCI-H226 lung, in the assay with UACC-62 melanoma, in the assay on OVCAR-5 ovarian, in the assay with SN12C renal, with SR leukemia and in the assay with K-562 leukemia was over 100 µM in each case. Also, the TGI in the assay with NCI/ADR-RES ovarian, in the assay on ACHN renal, in the assay with COLO 205 colon, in the assay on RXF 393 renal, in the assay on UO-31 renal and in the assay with U251 CNS was over 100 µM throughout. The TGI with TK-10 renal, in the assay on SNB-19 CNS, in the assay with DU-145 prostate, in the assay on MDA-MB-231 breast, with HOP-92 NSCLC and with NCI-H460 lung was over 100 µM each time.

In the case of `CCOC(=O)c1csc(C(CSCc2ccc(OC)cc2)N2C(=O)c3ccccc3C2=O)n1` (configuration not stated), the TGI in the assay on NCI-H226 lung, with UACC-62 melanoma, with OVCAR-5 ovarian, in the assay on SN12C renal, with SR leukemia and in the assay on K-562 leukemia was over 100 µM in each case. Moreover, the TGI with NCI/ADR-RES ovarian, in the assay on ACHN renal, with COLO 205 colon, in the assay on RXF 393 renal, with UO-31 renal and in the assay with U251 CNS was over 100 µM each time. The TGI in the assay on TK-10 renal, in the assay on SNB-19 CNS, in the assay on DU-145 prostate, in the assay on MDA-MB-231 breast, in the assay with HOP-92 NSCLC and in the assay with NCI-H460 lung was over 100 µM each time.

As to `Cc1ccc(Nc2nc(=O)c3c([nH]c4ccccc43)s2)cc1`, the TGI in the assay on UACC-62 melanoma was 21 µM; in the assay with SN12C renal, 31.6 µM; in the assay with SR leukemia, over 100 µM; in the assay with K-562 leukemia, over 100 µM; with NCI/ADR-RES ovarian it was 29.9 µM; in the assay with ACHN renal, 35.4 µM. Further, the TGI was 24.7 µM in the assay with COLO 205 colon; 7.32 µM with UO-31 renal; 25.5 µM in the assay with U251 CNS; 23.9 µM in the assay on TK-10 renal; 31.6 µM in the assay with SNB-75 CNS; over 100 µM in the assay with SNB-19 CNS. Further, the TGI came out at 32.5 µM in the assay with DU-145 prostate, 33.8 µM with MDA-MB-231 breast, 25.6 µM with HOP-92 NSCLC and 25.7 µM in the assay on NCI-H460 lung.

The values above are taken from PubChem BioAssay (NCI).
